# Measurements reported in patent US20240024647A1, “MUCOSA PERFORATION” (LTS LOHMANN THERAPIE-SYSTEME AG, priority 2020, published 2024).
# Structures can show the parent of a compound that is named as a salt.
# Legend:
# [1] = Solubility of the active ingredient in the acceptor medium; format: physicochemical
# [2] = In vitro permeation by Franz diffusion cells, mucosa with versus without steel microneedle system (AdminPatch)
# Method: (§1) The following test series with the selected active ingredients in each case were performed within the scope of a typical in vitro permeation by means of Franz diffusion cells (volume 10 mL) at 37° C. The used acceptor medium was replaced completely for a new one at predetermined replacement times, and the content of permeated active ingredient amount in these acceptor solutions was determined by means of HPLC.
# The contact pressure was 3 N by thumb pressure, monitored by means of a Roberval balance. The pressing time was 10 sec.
# A total of 187 microneedles were applied to an area of 0.785 cm^2 (microneedle density=238 per cm^2).
# For Example 4, the donor solution was injected (900 μl) onto or into the used dentistry tamponade (length and diameter 1 cm each). The microneedle system was fixed to the underside of the tamponade and was applied to the mucosa surface perpendicularly through the head of the Franz cells and fixed in a defined position by a suitable stopper and with moderate pressure.
# Phosphate buffer (pH 5.5) was used as acceptor medium and an addition of 2 wt. % Tween® 20 was used as organic solvent to maintain “sink” conditions. (sink=current solubility at time t of an active ingredient in an acceptor medium of at most 30% of its saturation solubility in this acceptor medium)
# A saturated solution of riociguat in clove oil (Primavera® clove bud organic essential oil, Oy-Mittelberg, Germany) was used as donor solution.
# (§2) Dermatomised skin from the oesophagus of a pig with a layer thickness of 400 μm was used as skin model.
# 0.025 molar HEPES buffer (pH 7.4) was used as acceptor medium.
# Phosphate buffer (pH 5.5) was used as acceptor medium and an addition of 2 wt. % Tween® 20 was used as organic solvent to maintain “sink” conditions. […]
# The surface of the mucosa was treated with the “AdminPatch™” microneedle system (needle length 600 μm) from the company “nanobioSciences” (CA, USA) made of steel with a contact pressure of 3 N by thumb pressure, monitored by means of a Roberval balance for 10 sec. […]
# [3] = In vitro permeation by Franz diffusion cells, dissolving microneedle system loaded with active ingredient, applied into the mucosa versus in reverse
# Method: as §1, with “HPLC. […]” for “HPLC.”
# For preparation, sumatriptan succinate, polyvinylpyrrolidone, Polysorbate 80 and glycerol were dissolved in water with the proportions 5:20:1:1:73 (in each case in wt. %). The finished solution was poured into negative needle moulds made of silicone, the surface of which was coated with a thin platinum layer by vacuum metallisation. The negative moulds were then dried overnight at room temperature. The dried microneedle systems were carefully pressed out from the dies after the drying process and stored under exclusion of moisture until their further use. The active ingredient content was 4.25 mg sumatriptan succinate per 0.785 cm^2 of system or 5.41 mg/cm^2.
# The length of the microneedles of the used microneedle system was 500 μm. A total of 600 microneedles were applied to an area of 0.785 cm^2 (microneedle density=764 per cm^2).
# as §2
# The microneedle system remained in the mucosa throughout the permeation period, the cell head additionally also having been filled with lead balls in order to simulate the in vivo contact pressure (for example between mandible and oral mucosa) in the oral cavity. As protection for the dissolving microneedle system, a separation film based on siliconised PET (polyethylene terephthalate) was also introduced in between in front of the lead balls.
# [4] = dissolving microneedle system loaded with sumatriptan base, acceptor phosphate buffer pH 6.0 + 2 wt. % Tween 20, FIG. 9
structure (smiles),measurement,setting,value
CN1CCc2cccc3c2[C@H]1Cc1ccc(O)c(O)c1-3 [apomorphine hydrochloride],solubility in acceptor medium,[1]; phosphate buffer (pH 6.8) with 0.1 wt. % L-ascorbic acid,very easily dissolved
C=C(C)[C@@H]1CCC(C)=C[C@H]1c1c(O)cc(CCCCC)cc1O [cannabidiol],"active ingredient flux after pretreatment with a microneedle system, factor higher in comparison to administration without pretreatment","[2]; saturated cannabidiol solution in clove oil, dentistry tamponade with microneedle system, acceptor phosphate buffer pH 5.5 + 2 wt. % Tween 20, FIG. 4",2.0
CNS(=O)(=O)Cc1ccc2[nH]cc(CCN(C)C)c2c1 [sumatriptan base],"active ingredient flux in the comparative example (system applied in reverse, not penetrating into the mucosa)",[3]; [4],not possible to measure an active ingredient flux
same,active ingredient flux with the microneedle system applied in the mucosa,[3]; [4],high active ingredient flux could be observed
same,solubility in acceptor medium,[1]; phosphate buffer (pH 6.0) with 2 wt. % Tween 20,very easily dissolved
CNS(=O)(=O)Cc1ccc2[nH]cc(CCN(C)C)c2c1 [sumatriptan succinate],"first permeation value after 10 min, factor higher in comparison to the comparative example","[3]; pig, 10 min, pH 7.4",approximately 4
same,"active ingredient flux with the microneedle system applied in the mucosa, factor higher in comparison to the system without penetration into the mucosa","[3]; pig, pH 7.4",2.0
same,solubility in acceptor medium,[1]; phosphate buffer (pH 7.4) without further additives,very easily dissolved
CCCCCc1cc(O)c2c(c1)OC(C)(C)[C@@H]1CCC(C)=C[C@@H]21 [tetrahydrocannabinol],time after which permeated active ingredient could be detected without pretreatment,"[2]; saturated tetrahydrocannabinol solution in clove oil, acceptor phosphate buffer pH 5.5 + 2 wt. % Tween 20, FIG. 3",3 h
same,"permeated active ingredient without pretreatment, factor lower in comparison to pretreated mucosa","[2]; saturated tetrahydrocannabinol solution in clove oil, value after 3 hours, FIG. 3",5
CC(=O)O[C@]1(C(C)=O)CC[C@H]2[C@@H]3CCC4=CC(=O)CCC4=C3[C@@H](c3ccc(N(C)C)cc3)C[C@@]21C [ulipristal acetate],solubility in acceptor medium,[1]; phosphate buffer (pH 7.4) with 2 wt. % Tween 20,very easily dissolved
